Measured values reported in patent US20220381657A1, “METHOD FOR PREPARING BIOLOGICAL MATERIAL HAVING EXCELLENT LIGHT-TRANSMITTING PROPERTY” (RIKEN, priority 2016, published 2022).
Structures can show the parent of a compound that is named as a salt. Where two headings read alike, the source gives them in different places.

Assays:
[1] = Refractive index of high-concentration aqueous solution; assay type: physicochemical
Description: The refractive index of an aqueous solution is commonly known to increase in a solute concentration-dependent manner, and the refractive index of a reagent per unit weight of the reagent varies among individual reagents. Accordingly, two properties are required in order to prepare a high refractive index aqueous solution: (1) an extremely high water-solubility and (2) a […] which allows achieving a high refractive index in a low-concentration aqueous solution.

[2] = test system: fixed brain tissue suspension; test: 1st delipidation assay: solubilization of fixed brain tissue suspension, turbidity at 600 nm; design: species or system mice; settings: Table 1; 10 wt % chemical, fixed mouse brain suspension, 37° C. overnight; PBS = 1.000
Protocol: Specifically, brains taken out of mice were sheared with a utility knife and then were disrupted by ultrasonication. To each of the resultant suspensions, an equal volume of 8% PFA solution was added to perform fixation at 4° C. for 1 hour. The resultant mixture was centrifuged to remove the supernatant, and the fixed brain tissue was washed with PBS for 3 times. PBS was added so as to obtain 2 mL of a fixed brain tissue suspension per brain. The fixed brain tissue suspension was diluted by 3.5 folds. To 20 μL of the resultant suspension, 130 μL of each 10 wt % chemical was added and was shaken at 37° C. overnight. Thus obtained mixed solutions were subjected to absorbance (turbidity) measurement at 600 nm. It is expected that a chemical solution which reduces the turbidity of a fixed brain suspension allows reducing light scattering by solubilizing lipids, which act as a scattering factor, in the brain tissue.

bovine coagulated blood = test: Decoloring screening: heme eluted from bovine coagulated blood (OD420-OD700); settings: decolorization; for 700 nm calibrated 420 nm Average: OD420 calibrated by OD700; for integrated value 500-700 nm Average: integrated absorbance 500-700 nm
Protocol: A high-throughput screening system for evaluating the decoloring ability of various compounds was constructed. The screening system involved adding an aqueous solution of each compound to bovine coagulated blood and then measuring the absorbance of heme collected in the supernatant.
Specifically, to bovine blood, an equal amount of 8% PFA solution was added, and reacted at 4° C. overnight. The mixed liquid was centrifuged at 1500×g for 5 minutes, and the supernatant containing PFA was discarded. Then, the same amount of PBS as the original volume of blood was added to prepare a coagulated blood sample. To 150 μL of 10 wt % aqueous solution of each compound, 50 μL of the coagulated blood sample was added, and reacted at 37° C. overnight. The reaction solution was centrifuged at 1500×g for 5 minutes, and then 100 μL of the supernatant was added to a plate so as to be subjected to absorbance measurement. A sample which is suspended in water instead of being dissolved in the water has a weak decoloring effect, but none the less has a high absorbance value. […]

[3] = for 400 nm: OD at 400 nm of the chemical
EGFP = EGFP (Aequorea victoria, UniProt P42212, F64L/H231L/S65T); assay type: biochemical; settings: for 2nd quenching assay EGFP fluorescence: Table 3; for retention of fluorescence of a fluorescent protein: stated in the description
Protocol: (FIG. 7). […] A mouse hemisphere was treated with use of each 10 wt % chemical solution at 37° C. for 3 days, and was washed with PBS. Subsequently, the mouse hemisphere was subjected to refractive index adjustment with CUBIC-2A.

[4] = Table 3, chemical conc. 70 wt %
[5] = Table 3, chemical conc. 80 wt %

Compound	1st delipidation assay Relative OD600 [2]	700 nm calibrated 420 nm Average (bovine coagulated blood)	integrated value 500-700 nm Average (bovine coagulated blood)	Fluorescence quench Average (Serius; relative fluorescence)	400 nm [3]	OD400 ([3]; Table 1)	pH (Table 1)	pH ([…])	RI [1, 4]	OD400 ([3]; Table 3)	pH (Table 3)	also measured
CNCC(O)c1cccc(O)c1.Cl (racemic) [#1142, DL- Phenylephrine hydrochloride]	–	–	–	–	–	–	–	–	–	–	–	RI [1]: 1.4954
NCC1CCCC(CN)C1 (stereo not drawn) [#0070, 1,3-Bis(aminomethyl) cyclohexane]	0.286	3.15	1.91	0.62	0.079	0.079	13.0	13.0	–	–	–	–
NCC1CCC(CN)CC1 (stereo not drawn) [#0071, 1,4-Bis(aminomethyl) cyclohexane]	0.318	3.25	1.90	0.56	0.054	0.054	13.3	13.3	–	–	–	pH (Table 4): 13.27
CN(C)CCSSCCN(C)C [#0299, Bis(2-dimethyl-aminoethyl) disulfide dihydrochloride]	–	–	–	–	–	–	–	–	1.4937	–	–	–
CCCC[N+](CCCC)(CCCC)Cc1ccccc1.[Cl-] [#0307, Benzyltributyl- ammonium chloride]	–	–	–	–	–	–	–	–	–	–	–	RI [1, 5]: 1.4939
CCCC[n+]1ccccc1.[Br-] [#0315, 1-Butyl-pyridinium bromide]	–	–	–	–	–	–	–	–	–	0.048	5.6	RI ([1]; Table 3, chemical conc. 85 wt %): 1.5090
NCCN1CCNCC1 [#0338, N-(2-Aminoethyl) piperazine]	–	–	–	–	–	–	–	–	–	0.062	12.4	RI ([1]; Table 3, chemical conc. 75 wt %): 1.4794
CCCC[n+]1ccccc1.[Cl-] [#0415, 1-Butyl-pyridinium chloride]	–	–	–	–	–	–	–	–	–	0.055	5.5	RI ([1]; Table 3, chemical conc. 90 wt %): 1.4824
C[N+](C)(Cc1ccccc1)c1ccccc1.[Cl-] [#0450, Benzyl- dimethyl- phenyl- ammonium chloride]	–	–	–	–	–	–	–	–	1.5002	0.052	6.7	2nd quenching assay EGFP fluorescence (EGFP): quench free; retention of fluorescence of a fluorescent protein (EGFP): allowing retention of fluorescence of a fluorescent protein
NCCCn1ccnc1 [#0484, 1-(3-aminopropyl)imidazole]	–	4.81	2.64	0.72	0.05	–	–	12.9	–	–	–	retention of fluorescence of a fluorescent protein (EGFP): allows fluorescence of a fluorescent protein to be retained
C[C@H](CCC(=O)[O-])[C@H]1CC[C@H]2[C@@H]3CC[C@@H]4C[C@H](O)CC[C@]4(C)[C@H]3C[C@H](O)[C@]12C.[Na+] [#0562, Sodium deoxycholate]	0.170	1.18	0.98	1.08	0.054	0.054	8.3	8.3	–	–	–	–
CCN(CC)C(=O)c1cccnc1 [#0609, N,N-Diethyl- nicotinamide]	–	–	–	–	–	–	–	–	–	0.056	6.4	RI [1, 5]: 1.4928
CCCCCCCCCCCC[n+]1ccccc1.[Cl-] [#0635, 1-Dodecylpyridinium chloride]	–	3.86	3.57	1.04	0.053	0.053	8.9	8.9	–	–	–	retention of fluorescence of a fluorescent protein (EGFP): allows fluorescence of a fluorescent protein to be retained
NCCCNCCCN [#0785, 3,3′-Diamino-dipropylamine]	–	2.09	1.48	–	–	–	–	–	–	–	–	RI ([1]; Table 3, chemical conc. 100 wt %): 1.4895; Fluorescence quench Average (Serius): 0.62
CN(C)CCOC(c1ccccc1)c1ccccc1.Cl [#0809, Diphen- hydramine hydrochloride]	–	–	–	–	–	–	–	–	1.4990	–	–	–
CN(C)CCSC(=N)N [#0830, S-[2-(Dimethyl-amino)ethyl] isothiourea-dihydrochloride]	–	–	–	–	–	–	–	–	1.5021	0.047	5.4	–
CN(C)C(=O)Oc1cccc([N+](C)(C)C)c1 [#0864, Neostigmine bromide]	–	–	–	–	–	–	–	–	1.4830	–	–	2nd quenching assay EGFP fluorescence (EGFP): quench free; retention of fluorescence of a fluorescent protein (EGFP): allowing retention of fluorescence of a fluorescent protein
Cc1cccc(C)n1 [#1008, 2,6-Lutidine]	0.314	2.00	2.16	0.71	0.063	0.063	9.9	9.9	–	–	–	–
CC(C)NCCCN [#1027, N-Isopropyl-1,3-diaminopropane]	0.219	1.52	1.24	0.55	0.061	0.061	13.4	13.4	–	–	–	–
[O-][n+]1ccccc1 [#1078, Pyridine N- oxide]	–	–	–	–	–	–	–	–	–	0.054	6.1	RI ([1]; Table 3, chemical conc. 60 wt %): 1.4795
NCc1cccnc1 [#1102, 3-Picolylamine]	–	2.46	1.32	0.77	0.056	–	–	11.6	1.4895	0.056	11.6	–
Cc1cccc[n+]1[O-] [#1140, 2-Methyl-pyridine N-oxide]	–	–	–	–	–	–	–	–	1.4919	0.049	6.2	–
Cc1cc[n+]([O-])cc1 [#1145, 4- Methylpyridine N-oxide]	–	–	–	–	–	–	–	–	1.5073	0.059	7.3	–
Cc1ccnc(C)c1 [#1312, 2,4-Lutidine]	0.325	2.47	2.59	0.84	0.051	0.051	7.6	7.6	–	–	–	–
Cc1ccc(C(=O)C(C)CN2CCCCC2)cc1.Cl (stereo not drawn) [#1392, Tolperisone hydrochloride]	–	–	–	–	–	–	–	–	1.4939	0.056	5.2	–
CN(C)C(=N)N(C)C [#1444, 1,1,3,3-Tetramethylguanidine]	0.124	1.38	1.15	0.14	0.072	0.072	12.4	12.4	–	–	–	–
CC1(C)CC(N)CC(C)(CN)C1 (stereo not drawn) [#1602, Isophoronediamine]	0.190	2.08	1.26	0.53	0.051	0.051	10.8	10.8	–	–	–	–
Cc1cccc(C)c1NC1=NCCCS1.Cl [#1612, Xylazine hydrochloride]	–	–	–	–	–	–	–	–	1.4956	–	–	–
Decyldimethyl(3- sulfopropyl)ammonium [#0651]	–	3.73	3.28	0.97	0.048	0.048	7.5	7.5	–	–	–	retention of fluorescence of a fluorescent protein (EGFP): allows fluorescence of a fluorescent protein to be retained
Tween ® 40 [#1455]	0.073	1.38	1.21	0.64	0.083	0.083	6.4	6.4	–	–	–	–
